This is an account of results in patent publication US5576355A, “Diamondoid derivatives for pharmaceutical use” (priority 1993, dated 1996).

Data set [1] concerns HIV-1/MN. The data set can be described thus: Anti-HIV assay (MTT, protection from cytopathic effect), pre- or post-infection, HIV-1/MN. As to MN Post-Infection: key: ++++: significant and reproducible inhibition of cytopathic effect; +++: significant and reproducible inhibition of cytopathic effect; +: noticeable but minimal protection; ---: no protective effect was observed; --: no protective effect was observed; -: no protection was observed but some changes in the cell culture occurred. Format: cell-based.
Data set [2] relates to HIV-1/MN. The data set can be described thus: Virus neutralization assay (MTT), HIV-1MN. As to MN Neutralization: key: ++++: significant and reproducible inhibition of cytopathic effect; +++: significant and reproducible inhibition of cytopathic effect; +: noticeable but minimal protection; ---: no protective effect was observed; --: no protective effect was observed; -: no protection was observed but some changes in the cell culture occurred. Format: cell-based.
For data set [3], the system named is MT-2 cells. The data set can be described thus: MTT dye reduction cytotoxicity assay, 5 days.
Experimental: The MT-2 cell line was grown and maintained in RPMI 1640 containing 10% fetal calf serum and antibiotics.
Precisely, when the MT-2 cells were in log phase and 2×10^4 cells were distributed in each well along with separate 100 μl aliquots of diluted test compounds. The test compounds were soluble in ethyl alcohol (EtOH). Ethanol and medium were incubated in some wells with the cells as an ethanol control. A cell control was also included (wells containing only cells and medium). The plates were incubated for 5 days at 37° C. in 5% CO2 and humidified conditions. Cell viability was determined in each well by the MTT assay. The OD570 (optical density at 570 nm) of cells without test compound was taken as 0% killing and was compared to the OD570 of cells with test compound. The toxicity profile for different compounds was then scored. In the MTT dye reduction assay toxicity was indicated as yellow in the wells, with blue color indicating the compound was non-toxic.
In data set [4] the test system is HIV-1MN induced syncytia. The data set is described as follows: Syncytia inhibition, HIV-1MN.
Data set [5] relates to VP6 primary HIV isolate. The data set can be described thus: Anti-HIV assay (MTT), pre- or post-infection, VP6 isolate. The conditions noted are these: words.
Data set [6] deals with AZT resistant strain (AZTR) of HIV-1. The data set can be described thus: Anti-HIV assay (MTT), pre- or post-infection, AZT resistant strain. The conditions noted are these: words.
Data set [7] concerns HIV-1. The data set is described as follows: Anti-HIV testing under the rigorous conditions of the examples (strain not stated). The conditions noted are these: high virus load, words.
In data set [8] the test system is Influenza Viruses. As to conditions: cited from earlier work.
Setting [9] is: HIV-1/MN, virus pre-mixed with compound 1 hour.

Molecules are shown by their SMILES. “Also recorded” adds a separate entry of the source. Where two headings read alike, the source gives them in different places.

In the case of `O[C@@H]1[C@@H]2C[C@H]3C[C@@H](C2)C2(OCCO2)[C@@H]1C3` (relative stereo) [Compound 8, 4(e)-hydroxy-2-adamantanone ethylene glycol ketal], in data set [1], the “MN Post-Infection” value is given as “-” and the “effect in pre-infection (pretreatment) assay” value (shortened to “effect in pre-infection”) is recorded as “effective”. The “effect in neutralization assay” value in data set [2] is listed as “effective”. Besides, in data set [3], the “Toxicity at 5 μg/ml” value is “-”, the “Toxicity at 50 μg/ml” value is recorded as “-” and the “Toxicity at .5 μg/ml” value is on record as “-”.
On to `O=C1C2CC3C4CC5CC3C1C(C5)C4C2` [Compound 6, 3-diamantanone], for which, in data set [1], the “MN Post-Infection” value is reported as “++++”; the “MN Pre-Infection” value is “+++”; the “effect in both pre-infection and post-infection assays” value was “effective; also recorded: active”; the “effect in post-infection assay” value was “effective”. For the same compound, the “effect in pre-infection” value in data set [1] is listed as “effective”. Also, in data set [4] (10 μg/ml, FIG. 2), the “inhibition of HIV-1MN induced syncytia at 10 μg/ml” value is on record as “completely inhibit”. For the same compound, in data set [2], the “MN Neutralization” value was “+++” and the “effect in neutralization assay” value is recorded as “effective; also recorded: active”. Moreover, the “inhibition of virus replication, VP6 clinical isolates” value in data set [5] (both pre- and post-infection) is listed as “inhibited virus replication”. Also, in data set [5], the “inhibition of clinical isolates” value is “shown to inhibit”. In addition, in data set [3], the “Toxicity at 5 μg/ml” value was “-”, the “Toxicity at 50 μg/ml” value is listed as “-” and the “Toxicity at .5 μg/ml” value is recorded as “-”. Besides, in data set [6] (both pre- and post-infection), the “inhibition of virus replication, AZT resistant strains” value was “inhibited virus replication”. Further, the “inhibition of AZT resistant isolates” value in data set [6] was “shown to inhibit”.
Regarding `O=C1C2CC3CC1CC(C2)C3=O` [adamantane-2,6-dione], the “activity under the rigorous testing conditions” value (“activity” for short) in data set [7] was “ineffective”.
Take `O=C1C2CC3CC(C2)C(=O)C1C3` [Compound 7, 2,4-adamantanedione]: in data set [1] (HIV-1/MN, post-infection), the “MN Post-Infection” value is “-”. Also, the “effect in pre-infection” value in data set [1] (MN, pre-infection, words) is given as “effective; also recorded: inhibited viral cytopathic effect”. The “pretreatment compared with post-infection treatment” value in data set [1] (words) is “pretreatment is more effective than post-infection treatment”. In data set [4] (concentration not given), the “inhibition of syncytia formation” value is “substantially eliminate syncytia formation”. Also, the “effect in neutralization assay” value in data set [2] (neutralization, words) is given as “effective”. The “inhibition of CPE of HIV, VP6 isolate” value in data set [5] (pre-infection) is “inhibited CPE of HIV”. Also, the “inhibition of clinical isolates” value in data set [5] is on record as “shown to inhibit”. In addition, in data set [3], the “Toxicity at 5 μg/ml” value is given as “-”, the “Toxicity at 50 μg/ml” value is recorded as “-”, the “Toxicity at 500 μg/ml” value is on record as “-” and the “Toxicity at .5 μg/ml” value is on record as “-”. The “inhibition of CPE of HIV, AZT resistant isolate” value in data set [6] (pre-infection) is listed as “inhibited CPE of HIV”. Also, the “inhibition of AZT resistant isolates” value in data set [6] was “shown to inhibit”.
For the compound `NC12CC3CC(CC(C3)C1)C2` [Amantadine], the “concentration at which viral entry into the cell is non-specifically inhibited” value in data set [8] (altering the pH of the endocytic vesicle) was more than 0.5 mM. Moreover, the “concentration of selective strain-specific inhibition of virus assembly” value in data set [8] (lower concentration) is on record as “about 5 μM”.
Regarding `O=C1C2CC3CC(C2)CC1C3` [2-adamantanone, reference compound], the “activity” value in data set [7] is “ineffective”.
With `C[N+](C)(C)CC[N+](C)(C)C1C2CC3CC(C2)CC1C3` (stereo not shown) [Compound 4, N-2-adamantyl-N,N,N',N',N'-pentamethyl ethane-1,2-bis ammonium diiodide], in data set [3], the “Toxicity at 5 μg/ml” value was “-”, the “Toxicity at 50 μg/ml” value was “-”, the “Toxicity at 500 μg/ml” value is “-” and the “Toxicity at .5 μg/ml” value was “-”.
Consider `O=C(O)CNC1C2CC3CC(C2)CC1C3` (stereo not shown) [Compound 5, N-2-adamantyl glycine], for which the “MN Pre-Infection” value in data set [1] (HIV-1/MN, cells pretreated 1 hour) is listed as “-”. The “MN Post-Infection” value in data set [1] (HIV-1/MN, post-infection) is “+++”. Further, the “effect in post-infection assay” value in data set [1] (post-infection, words) is “effective”. The “MN Neutralization” value in data set [2] (setting [9]) is “-”. Further, in data set [3], the “Toxicity at 5 μg/ml” value is on record as “-”, the “Toxicity at 50 μg/ml” value was “-”, the “Toxicity at 500 μg/ml” value is recorded as “-” and the “Toxicity at .5 μg/ml” value is on record as “-”.
As for `OC12CC3(O)CC(O)(C1)CC(O)(C2)C3` [Compound 1, 1,3,5,7-tetrahydroxyadamantane], the “MN Post-Infection” value in data set [1] (HIV-1/MN, post-infection) is listed as “+++”. Besides, the “effect in both pre-infection and post-infection assays” value in data set [1] (HIV-1MN, words) was “effective”. Besides, the “effect in pre-infection” value in data set [1] (MN, pre-infection, words) is listed as “effective”. Besides, the “effect in post-infection assay” value in data set [1] (post-infection, words) is listed as “effective”. Further, the “effect in neutralization assay” value in data set [2] (neutralization, words) is reported as “effective”. Besides, in data set [3], the “Toxicity at 5 μg/ml” value is reported as “-”, the “Toxicity at 50 μg/ml” value is on record as “-”, the “Toxicity at 500 μg/ml” value is “-” and the “Toxicity at .5 μg/ml” value is listed as “-”.
As to `O=C1C2CC3C4CC5CC3C(C2=O)C(C5)C14` [diamantane-3,5-dione], the “activity” value in data set [7] is listed as “ineffective”.
Regarding `CC12CC3(C)CC(O)(C1)CC(O)(C2)C3` [Compound 2, 1,3-dihydroxy-5,7-dimethyladamantane], the “MN Post-Infection” value in data set [1] (HIV-1/MN, post-infection) was “+++”. The “effect in both pre-infection and post-infection assays” value in data set [1] (HIV-1MN, words) was “effective”. In data set [1] (MN, pre-infection, words), the “effect in pre-infection” value was “effective”. Also, the “effect in post-infection assay” value in data set [1] (post-infection, words) is “effective”. Also, in data set [2] (neutralization, words), the “effect in neutralization assay” value is on record as “effective”. For the same compound, in data set [3], the “Toxicity at 5 μg/ml” value is given as “-”, the “Toxicity at 50 μg/ml” value is on record as “-” and the “Toxicity at .5 μg/ml” value is listed as “-”.
Take `O=C1C2CC3CC1CC(O)(C3)C2` [5-hydroxy-2-adamantanone]: the “activity” value in data set [7] is recorded as “ineffective”.
As to `C[N+](C)(C)CCC[N+](C)(C)C1C2CC3C4CC5CC3C1C(C5)C4C2` (stereo not shown) [Compound 3, N-3-diamantyl-N,N,N',N',N'-pentamethyl propane-1,3-bis ammonium diiodide], in data set [1] (HIV-1/MN, post-infection), the “MN Post-Infection” value is listed as “+++”. Further, in data set [1] (HIV-1MN, words), the “effect in both pre-infection and post-infection assays” value is “effective”. Further, the “effect in pre-infection” value in data set [1] (MN, pre-infection, words) is “effective”. In data set [1] (post-infection, words), the “effect in post-infection assay” value is recorded as “effective”. Further, in data set [2] (setting [9]), the “MN Neutralization” value is “+++”. In data set [2] (neutralization, words), the “effect in neutralization assay” value was “effective”. In data set [3], the “Toxicity at 5 μg/ml” value is on record as “-”, the “Toxicity at 50 μg/ml” value was “-” and the “Toxicity at .5 μg/ml” value is given as “-”.
Regarding `C[N+](C)(C)CCC[N+](C)(C)C1C2CC3CC(C2)CC1C3` (stereo not shown) [N-(2-adamantyl)-N,N,N',N',N'-pentamethyl-propane-1,3-bis ammonium diodide], the “activity” value in data set [7] is “ineffective”.
